Measured values: publication PMC6152127, “Facile Synthesis of Novel Coumarin Derivatives, Antimicrobial Analysis, Enzyme Assay, Docking Study, ADMET Prediction and Toxicity Study” (Molecules : A Journal of Synthetic Chemistry and Natural …, 2017)
Values after ≈ are worked out from the molar mass of the structure shown.

Experiments:
[1] = tested on: HeLa (Human cervical cancer cell line); assay: In vitro cytotoxicity, Sulforhodamine B (SRB) assay; assay type: cell-based; details: for GI50: Homo sapiens, HeLa, SRB assay, concentration range 50 to 0.78 μg/mL; for cell inhibition HeLa: up to 50 µg/mL concentration, Figure 4
Method: To examine the safety of the synthesized compounds, the compounds 4e and 4k were evaluated for their toxicity against the HeLa human cervical cancer cell line by a Sulforhodamine B (SRB) assay using Adriamycin as a standard drug.
In vitro cytotoxicity study of the synthesized compounds 4e and 4k was performed against HeLa (Human cervical cancer cell line) by Sulforhodamine B (SRB) assay using Adriamycin as positive control. The images were captured using an Eclipse Ti-S Inverted Research Microscope (Nikon, Tokyo, Japan). Image processing software used was NIS-Elements.

[2] = tested on: Staphylococcus aureus (NCIM-2901); assay: In vitro antibacterial activity, MIC; assay type: cell-based; details: average of three readings; for MIC: Staphylococcus aureus, NCIM2901
Method: (§1) The newly synthesized compounds 4a–o were screened for their in vitro antibacterial activity against the three different bacterial strains. Minimum inhibitory concentration (MIC) values for antibacterial activity were determined by standard agar method using Ampicillin as standard drug. Dimethyl sulfoxide (DMSO) was used as solvent control. […] Compound 4e bearing a 2,4-difluoro group on the phenyl ring was 48 µg/mL for E. coli, 50 µg/mL for B. subtilis and 52 µg/mL for S. aureus.
(§2) All the synthesized compounds were screened for their in vitro antifungal and antibacterial activity. The antibacterial activity was evaluated against three human pathogenic bacterial strains: Escherichia coli (NCIM-2256), Bacillus subtilis (NCIM-2063) and Staphylococcus aureus (NCIM-2901). The antifungal activity was evaluated against seven human pathogenic fungal strains: Candida albicans (NCIM-3471), Candida glabrata (NCYC-388), Fusarium oxysporum (NCIM-1332), Aspergillus fumigates (NCIM-902), Aspergillus flavus (NCIM-539), Aspergillus niger (NCIM-1196) and Cryptococcus neoformans (NCIM-576), which are often encountered clinically. Miconazole was used as standard drug. Minimum inhibitory concentration (MIC) values were determined as per CLSI guidelines. Dimethyl sulfoxide (DMSO) was used as solvent control.
(§3) All the synthesized compounds 4a–o were screened for their in vitro antibacterial activity. Minimum inhibitory concentration (MIC) values were determined using method recommended by National Committee for Clinical Laboratory Standards (NCCLS). In vitro antibacterial activities of the synthesized compounds 4a–o were tested in Nutrient Broth (NB) for bacteria by the two fold serial dilution method. Seeded broth (broth containing microbial spores) was prepared in NB from 24 h old bacterial cultures on nutrient agar (Hi-media) at 37± 1 °C. The bacterial suspension was adjusted with sterile saline to a concentration of 1× 10^−4–10^−5 C.F.U. The synthesized compounds and standard drug Ampicillin were prepared by two fold serial dilutions to obtain the required concentrations of 400, 200, 100, 50, 25, 12.5, 6.25 and 3.13 μg/mL. The tubes were incubated in BOD incubators at 37± 1 °C for bacteria. The MICs were recorded by visual observations after 24 h (for bacteria) of incubation.

[3] = tested on: Escherichia coli (NCIM-2256); assay: In vitro antibacterial activity, MIC; assay type: cell-based; details: average of three readings; for MIC: Escherichia coli, NCIM2256
Method: as §1, §2, §3

[4] = tested on: Bacillus subtilis (NCIM-2063); assay: In vitro antibacterial activity, MIC; assay type: cell-based; details: average of three readings; for MIC: Bacillus subtilis, NCIM2063
Method: as §1, §2, §3

Swiss albino mice = assay: In vivo acute oral toxicity study and behavioral study (OECD guideline no. 425); design: key to Straub Tail / Pilo Erection / Convulsions / Normal Motor Activity / Stereotypy / Tremors / Sedation / Hypnosis / Muscle Spasms / Toxicity / Deaths / Eye Lacrimation / Salivation / Diarrhea / Respiration Problems: N: no; Y: yes; details: for Convulsions / Deaths / Diarrhea / Eye Lacrimation / Hypnosis / Muscle Spasms / Normal Motor Activity / Pilo Erection / Respiration Problems / Salivation / Sedation / Stereotypy / Straub Tail / Toxicity / Tremors: Swiss albino mice, single oral dose 100–2000 mg/kg; for lethal dose: oral, mice, body weight, no mortality up to 2000 mg/kg
Method: In vivo acute oral toxicity study and gross behavioral studies of the newly synthesized compounds 4e and 4k is shown in Table 5.
425 using Swiss albino mice (18–22 gm weight) quarantined at animal house at Y.B. Chavan College of Pharmacy, Aurangabad IAEC approval number CPCSEA/IAEC/P’col-52/2015-16/115. Each group consists of six mice (overnight fasted) and kept in colony cage at 25 ± 2 °C with 55% relative humidity and 12 h of light and dark cycle. A specified dose of 100, 250, 500, 750, 1000, 1500 and 2000 mg/kg body weight of mice was administered orally as a single dose. The acute toxic symptoms and the behavioral changes produced by the synthesized compounds were observed continuously for 4 h periods at 8th, 12th and 24th h on set of toxic symptoms and the gross behavioral changes were also recorded. These animals were maintained for further 10 days with observation made daily.

[5] = tested on: Aspergillus niger (NCIM-1196); assay: In vitro antifungal activity, MIC, agar method (CLSI); assay type: cell-based; details: NCIM1196, average of three readings
Method: (§4) The newly synthesized 3-((dicyclohexylamino)(substituted phenyl/heteryl)methyl)-4-hydroxy-2H-chromen-2-one derivatives 4a–o were screened for their in vitro antifungal activity against different yeast and filamentous fungal pathogens. […] Dimethyl sulfoxide (DMSO) was used as solvent control.
as §2, with “Miconazole was used as standard drug.” left out
(§5) Antifungal activity was determined as per CLSI (formerly, NCCLS) guidelines. […] The medium yeast nitrogen base was dissolved in phosphate buffer pH 7 and it was autoclaved at 110 °C for 10 min. With each set a growth control without the antifungal agent and solvent control DMSO were included. The fungal strains were freshly sub cultured on to Sabouraud dextrose agar (SDA) and incubated at 25 °C for 72 h. The fungal cells were suspended in sterile distilled water and diluted to get 10^5 cells/mL. Ten μL of the standardized suspension was inoculated onto the control plates and the media incorporated with the antifungal agents. The inoculated plates were incubated at 25 °C for 48 h. The readings were taken at the end of 48 h and 72 h. The MIC was the lowest concentration of drug preventing growth of macroscopically visible colonies on drug containing plates when there was visible growth on the drug free control plates.

[6] = tested on: Fusarium oxysporum (NCIM-1332); assay: as above; assay type: cell-based; details: NCIM1332, average of three readings
Method: as §4
as §2, with “Miconazole was used as standard drug.” left out
as §5

[7] = tested on: Candida albicans (NCIM-3471); assay: as above; assay type: cell-based; details: NCIM3471, average of three readings
Method: as §4
as §2, with “Miconazole was used as standard drug.” left out
as §5

[8] = tested on: Cryptococcus neoformans (NCIM-576); assay: as above; assay type: cell-based; details: NCIM576, average of three readings
Method: as §4
as §2, with “Miconazole was used as standard drug.” left out
as §5

[9] = tested on: Aspergillus fumigates (NCIM-902); assay: as above; assay type: cell-based; details: NCIM902, average of three readings
Method: as §4
as §2, with “Miconazole was used as standard drug.” left out
as §5

[10] = tested on: Candida glabrata (NCYC-388); assay: as above; assay type: cell-based; details: Nakaseomyces glabratus; average of three readings
Method: as §4
as §2, with “Miconazole was used as standard drug.” left out
as §5

[11] = tested on: Aspergillus flavus (NCIM-539); assay: as above; assay type: cell-based; details: NCIM539, average of three readings
Method: as §4
as §2, with “Miconazole was used as standard drug.” left out
as §5

[12] = tested on: ergosterol biosynthesis in C. albicans; assay: Ergosterol extraction and quantitation assay; assay type: cell-based, Candida albicans (NCIM-3471); details: at the MIC value (25 µg/mL), C. albicans NCIM3471
Method: A single Candida albicans (NCIM-3471) colony from an overnight Sabouraud dextrose agar plate culture was used to inoculate 50 mL of Sabouraud dextrose broth for control and for various concentrations of the molecules. […] The net weight of the cell pellet was determined. […] Cell suspensions were transferred to sterile borosilicate glass screw-cap tubes and were incubated in an 85 °C water bath for one hour. Following incubation, the tubes were allowed to cool. […] The heptane layer was transferred to a clean borosilicate glass screw-cap tube and stored at −20 °C. […] The absence of detectable ergosterol in extracts was indicated by a flat line.

## COc1cccc2c1C(=O)c1c(O)c3c(c(O)c1C2=O)C[C@@](O)(C(=O)CO)C[C@@H]3O[C@H]1C[C@H](N)[C@H](O)[C@H](C)O1 [Adriamycin, reference compound]
[1]
  GI50: 0.5 µg/mL (≈ 0.92 µM)

## O=c1oc2ccccc2c(O)c1C(c1ccc(F)cc1F)N(C1CCCCC1)C1CCCCC1 (stereo not drawn) [Compound 4e, 3-((Dicyclohexylamino)(2,4-difluorophenyl)methyl)-4-hydroxy-2H-chromen-2-one]
[2]
  MIC: 52 µg/mL (≈ 111 µM)
  MIC Staphylococcus aureus: 52 µg/mL (≈ 111 µM)
[3]
  MIC: 48 µg/mL (≈ 103 µM)
  MIC Escherichia coli: 48 µg/mL (≈ 103 µM)
[4]
  MIC: 50 µg/mL (≈ 107 µM)
  MIC Bacillus subtilis: 50 µg/mL (≈ 107 µM)
Swiss albino mice
  Convulsions: N
  Deaths: N
  Diarrhea: N
  Eye Lacrimation: N
  Hypnosis: N
  Muscle Spasms: N
  Normal Motor Activity: Y
  Pilo Erection: N
  Respiration Problems: N
  Salivation: N
  Sedation: N
  Stereotypy: N
  Straub Tail: N
  Toxicity: N
  Tremors: N
  lethal dose: above 2000 mg/kg
[5]
  MIC: 12 µg/mL (≈ 25.7 µM)
[6]
  MIC: 30 µg/mL (≈ 64.2 µM)
[7]
  MIC: 28 µg/mL (≈ 59.9 µM)
[8]
  MIC: 12 µg/mL (≈ 25.7 µM)
[9]
  MIC: 28 µg/mL (≈ 59.9 µM)
[10]
  MIC: 26 µg/mL (≈ 55.6 µM)
[11]
  MIC: 12 µg/mL (≈ 25.7 µM)
[1]
  GI50: > 50 µg/mL
  cell inhibition HeLa: did not take place

## COc1cc(C(c2c(O)c3ccccc3oc2=O)N(C2CCCCC2)C2CCCCC2)ccc1O (stereo not drawn) [Compound 4k, 3-((Dicyclohexylamino)(4-hydroxy-3-methoxyphenyl)methyl)-4-hydroxy-2H-chromen-2-one]
[2]
  MIC: 54 µg/mL (≈ 113 µM)
[3]
  MIC: 55 µg/mL (≈ 115 µM)
[4]
  MIC: 55 µg/mL (≈ 115 µM)
Swiss albino mice
  Convulsions: N
  Deaths: N
  Diarrhea: N
  Eye Lacrimation: N
  Hypnosis: N
  Muscle Spasms: N
  Normal Motor Activity: Y
  Pilo Erection: N
  Respiration Problems: N
  Salivation: N
  Sedation: N
  Stereotypy: N
  Straub Tail: N
  Toxicity: N
  Tremors: N
  lethal dose: above 2000 mg/kg
[5]
  MIC: 15 µg/mL (≈ 31.4 µM)
[6]
  MIC: 28 µg/mL (≈ 58.6 µM)
[7]
  MIC: 25 µg/mL (≈ 52.3 µM)
[8]
  MIC: 15 µg/mL (≈ 31.4 µM)
[9]
  MIC: 38 µg/mL (≈ 79.6 µM)
[10]
  MIC: 30 µg/mL (≈ 62.8 µM)
[11]
  MIC: 12 µg/mL (≈ 25.1 µM)
[1]
  GI50: > 50 µg/mL
  cell inhibition HeLa: did not take place
[12]
  UV sterol profile, ergosterol peak at 281.5 nm: almost a flat curve

## O=c1oc2ccccc2c(O)c1C(c1cccs1)N(C1CCCCC1)C1CCCCC1 (stereo not drawn) [Compound 4n, 3-((Dicyclohexylamino)(thiophen-2-yl)methyl)-4-hydroxy-2H-chromen-2-one]
[2]
  MIC: 72 µg/mL (≈ 165 µM)
[3]
  MIC: 65 µg/mL (≈ 149 µM)
[4]
  MIC: 74 µg/mL (≈ 169 µM)
other
  melting point: 140 to 142 °C
[5]
  MIC: 38 µg/mL (≈ 86.8 µM)
[6]
  MIC: 58 µg/mL (≈ 133 µM)
[7]
  MIC: 55 µg/mL (≈ 126 µM)
[8]
  MIC: 33 µg/mL (≈ 75.4 µM)
[9]
  MIC: 67 µg/mL (≈ 153 µM)
[10]
  MIC: 53 µg/mL (≈ 121 µM)
[11]
  MIC: 32 µg/mL (≈ 73.1 µM)
